Measured values published in patent US20140113904A1, “TREATMENT OF CANCER WITH TOR KINASE INHIBITORS” (SIGNAL PHARMACEUTICALS, LLC, priority 2012, published 2014).

Tests used:
Assay type in all cases: in vivo, SCID mice
PC3 tumors [1] = test: Apoptosis TUNEL assay in PC3 tumors (Compound 1, rapamycin); details: 25 mg/kg oral QD for 6 days, 2 hours after last dose
Procedure: (§1) Two hours after the last dose of either vehicle, Compound 1, or rapamycin, the mice were euthanized and the tumors were dissected. The tumors were snap frozen in liquid nitrogen and processed for immunohistochemistry (IHC) and TUNEL.
To detect the apoptotic cells, fluorescence in situ cell death detection kit (Roche Biosciences) was used. Five to ten micron thick cryostat sections were fixed in 4% paraformaldehyde for 15 minutes at room temperature, washed, permeabilized with 0.3% triton X-100 and 0.1% sodium citrate in PBS for 10 minutes. Sections were then washed in PBS and incubated with a labeling solution containing TdT enzyme for 1 hour at 37° C. in the dark. The sections were washed in PBS, counterstained with Hoechst dye (0.4 μg/mL) at room temperature for 10 minutes and mounted in Prolong Gold antifade reagent.
(§2) The tissues sections processed for apoptosis or immunostained for proliferating cells (Ki-67) or blood vessels were quantitated using Metamorph software. Using 20× objective, 5 different fields from each section, 2 to 4 sections from each tumor, and 3 to 4 tumors from each treatment group or control were used for quantitation. The area of interest was expressed as the percent threshold area of the total area.

PC3 tumors [2] = test: Antitumor activity of Compound 1 in PC3 human prostate cancer xenograft model; details: for tumor volume reduction compared with vehicle control: Day 31; for tumor volume reduction compared to vehicle control / tumor inhibition compared to vehicle control: day 31
Procedure: The BID dose groups were dosed with a 10-hour separation between the morning and evening doses. […] At the end of each study, plasma and/or tumor samples were collected.
PC3 cell line was obtained from American Tissue Culture Collection (ATCC) (Gaithersberg, Md.) and grown in growth medium containing Ham's F12K medium with 2 mM L-glutamine adjusted to contain 1.5 g/L sodium bicarbonate and 10% of fetal bovine serum. The cells were detached from tissue culture flasks using trypsin-EDTA. After centrifugation, the cell pellets were suspended in phosphate buffered saline (PBS) and counted using a hemocytometer.
Mice were anesthetized with inhaled isoflurane and then inoculated with PC3 tumor cells subcutaneously on the right hind leg with 0.1 mL of single cell suspensions in Matrigel using a sterile 1 mL syringe fitted with a 26 gauge needle. Following inoculation, the mice were returned to microisolator cages.
Following inoculation, the tumors were allowed to grow to about 100 mm^3 or 500 mm^3 prior to randomization. For efficacy studies, animals with tumors of approximately 100 mm^3 were used. The typical number of days required for tumors to reach 100 mm^3 was 9 to 11 days. The tumor of each animal was measured and animals with tumors ranging between 100 and 200 mm^3 were included in the study. For tolerability and regression studies, animals with tumors of approximately 500 mm^3 (range 300-500 mm^3) were used. The typical number of days required for tumors to reach 500 mm^3 was 20 to 22 days. The animals were then distributed randomly into various cages and the cages were randomly assigned to vehicle, positive control or test article groups. All of the mice were tagged with metal ear tags on the right ear. A typical efficacy study group consisted of 8 to 10 animals. Tolerability study group consisted of 4-6 animals.
The formulations were homogenized using a Teflon™ pestle and mortar (Potter-Elvehjem tissue grinder). Between the doses, the formulated compound was stored under constant stirring using a magnetic stirrer at 4° C. in the dark. The test article and vehicle were administered by oral gavage. […] Sterile syringes and gavage needles were used for compound administration. All the procedures including injections were done in biosafety cabinets sprayed with 70% ethanol prior to use.
Tumor volumes were determined prior to the initiation of treatment and were considered as the starting volumes. Thereafter, tumors were measured twice a week for the duration of the study. The long and short axes of each tumor were measured using a digital caliper in millimeters. The tumor volumes were calculated using the formula: width^2× length/2. The tumor volumes were expressed in cubic millimeters (mm^3).

CD-31 = CD-31 immunohistochemistry in PC3 tumors (Compound 1); details: 25 mg/kg oral QD for 6 days, 2 hours after last dose
Procedure: as §1
Five to ten micron thick cryostat sections of tumor samples were used for IHC. The expression of a cell proliferation marker Ki-67 was evaluated by IHC using anti-Ki-67 antibody. Anti-CD-31 antibody was used to determine blood vessel density and is a measurement of tumor angiogenesis. Frozen sections were fixed in 4% paraformaldehyde for 10 minutes at room temperature, washed in PBS, blocked and permeabilized with normal goat serum and triton x-100. Sections were then incubated with primary antibody (overnight) followed by incubation with secondary antibody (60 minutes). […] The sections were visualized with a Nikon E800 microscope equipped with fluorescence detection equipment and a digital camera attached to a computer.
as §2

CD31 = CD31 immunohistochemistry in PC3 tumors (Compound 2); details: 5 mg/kg oral QD for 6 days, 2 hours after last dose
Ki67 = Ki67 immunohistochemistry in PC3 tumors (Compound 2); details: 5 mg/kg oral QD for 6 days, 2 hours after last dose

Compound: CO[C@H]1CC[C@H](N2C(=O)CNc3ncc(-c4ccc(C(C)(C)O)nc4)nc32)CC1 [Compound 1, 7-(6-(2-hydroxypropan-2-yl)pyridin-3-yl)-1-((1r,4r)-4-methoxycyclohexyl)-3,4-dihydropyrazino-[2,3-b]pyrazin-2(1H)-one]
- TUNEL-positive cells compared with the vehicle control (PC3 tumors [1]): about a two fold increase
- tumor volume reduction compared with vehicle control (PC3 tumors [2]; 5 mg/kg BID): 64.9%
- tumor volume reduction compared with vehicle control (PC3 tumors [2]; 10 mg/kg BID): 79.9%
- tumor volume reduction compared to vehicle control (PC3 tumors [2]; 10 mg/kg QD oral): 46.1%
- average tumor volume (PC3 tumors [2]; 10 mg/kg QD, Day 31 (vehicle 712)): 383 mm^3
- tumor inhibition compared to vehicle control (PC3 tumors [2]; 25 mg/kg Q2D): 72%
- tumor inhibition compared to vehicle control (PC3 tumors [2]; 25 mg/kg Q3D): 61%
- average tumor volume (PC3 tumors [2]; 25 mg/kg QD group, Day 52 after 3 weeks without dosing): about 427 mm^3
- tumor response (PC3 tumors [2]; 25 mg/kg QD oral, 3 weeks): Tumor regression
- tumor volume reduction compared to vehicle control (PC3 tumors [2]; 25 mg/kg QD oral): 86.7%
- average tumor volume (PC3 tumors [2]; 25 mg/kg QD, Day 31 (158 on Day 11; vehicle 712)): 123 mm^3
- tumor volume at the end of the second cycle (PC3 tumors [2]; 25 mg/kg QD, second 3-week cycle): approximately 729 mm^3
- tumor inhibition compared to vehicle control (PC3 tumors [2]; 50 mg/kg Q3D): 82%
- tumor inhibition compared to vehicle control (PC3 tumors [2]; 50 mg/kg Q5D): 61%
- tumor inhibition compared to vehicle control (PC3 tumors [2]; 50 mg/kg Q7D): 49%
- lowest (minimal) efficacious dose (PC3 tumors [2]; BID, determined by 65% tumor volume inhibition): 5 mg/kg
- tumor response (PC3 tumors [2]; regression study, 1 mg/kg BID, vs vehicle): significantly (p<0.01) slowed tumor growth
- tumor response (PC3 tumors [2]; regression study, 5 mg/kg BID): stasis of tumor growth
- tumor response (PC3 tumors [2]; regression study, 10 mg/kg BID): regression of PC3 tumors
- average tumor volume (PC3 tumors [2]; regression study, 10 mg/kg BID, day 43 (482.2±12.6 on day 20)): 343.6±32.6 mm^3
- tumor response (PC3 tumors [2]; regression study, 25 mg/kg Q2D): regression of tumors initially during the first 2 weeks of dosing
- tumor volume (PC3 tumors [2]; regression study, 25 mg/kg Q2D, day 43 (475.1±19.6 on day 20)): 549.4±45.7 mm^3
- CD-31 positive blood vessels vs vehicle (CD-31): significantly (p<0.01) fewer

Compound: CCN1C(=O)CNc2ncc(-c3ccc(-c4nc[nH]n4)nc3C)nc21 [Compound 2, 1-ethyl-7-(2-methyl-6-(1H-1,2,4-triazol-3-yl)pyridin-3-yl)-3,4-dihydropyrazino[2,3-b]pyrazin-2(1H)-one]
- reduction of CD31 positive blood vessels vs vehicle (CD31): 50%
- reduction in the number of proliferating cells (Ki67) vs vehicle (Ki67): 93%
